Laboratory results published in the supplement of paper PMC10307832.

These cell lines were tested with C[C@@H](Oc1cc(-c2cnn(C3CCNCC3)c2)cnc1N)c1c(Cl)ccc(F)c1Cl [Crizotinib] + Cc1nc(Nc2ncc(C(=O)Nc3c(C)cccc3Cl)s2)cc(N2CCN(CCO)CC2)n1 [Dasatinib] (partner 0.075 µM) (assay: relative viability (nuclei count vs DMSO), 5 days (fraction); higher = more cells survive). Conditions: first compound 0.01 µM.
In short: (§1)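 After 5 days of treatment, lung cancer cells in 1536-well plates were fixed and stained in a single step (final 0.05% Triton X-100, 1% formaldehyde, 1 ug/ml Hoechst) and their nuclei counted on 4× images. Treatment had been applied by pin tool the day after seeding as one drug alone or as a fixed anchor-drug dose with five library-drug doses (not always all listed) in √10 steps. Relative viability is the nuclei count of treated wells divided by that of vehicle wells, and values are medians of duplicate plates.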

Cell Line	relative viability
201T	0.599
A-427	0.696
BEN	0.295
CAL-12T	0.407
COR-L23	0.508
COR-L 105	0.36
ChaGo-K-1	0.58
EKVX	0.372
EMC-BAC-2	0.369
EPLC-272H	0.426
H3255	0.381
HARA	0.28
HCC-15	0.557
HCC-366	0.592
HCC-827	0.287
HOP-62	0.581
LC-2-ad	0.46

Cell Line	relative viability
LCLC-97TM1	0.827
LCLC-103H	0.479
LK-2	0.369
LOU-NH91	0.523
LU99A	0.434
LXF-289	0.306
NCI-H23	0.763
NCI-H358	0.137
NCI-H522	0.945
NCI-H650	0.472
NCI-H661	0.811
NCI-H1395	0.388
NCI-H1563	0.462
NCI-H1623	0.455
NCI-H2342	0.302
SW 900	0.449

Same assay, conditions: first compound 0.03162 µM

Cell Line	relative viability
201T	0.628
A-427	0.765
ABC-1	0.534
BEN	0.311
CAL-12T	0.47
COR-L23	0.424
COR-L 105	0.328
ChaGo-K-1	0.573
EKVX	0.572
EMC-BAC-2	0.313
EPLC-272H	0.382
H3255	0.462
HARA	0.279
HCC-15	0.573
HCC-78	0.335
HCC-366	0.649
HCC-827	0.289

Cell Line	relative viability
HOP-62	0.637
LC-2-ad	0.586
LCLC-97TM1	0.763
LCLC-103H	0.418
LK-2	0.338
LOU-NH91	0.547
LU99A	0.565
LXF-289	0.209
NCI-H23	0.83
NCI-H358	0.163
NCI-H650	0.434
NCI-H1395	0.376
NCI-H1563	0.443
NCI-H1623	0.502
NCI-H2342	0.334
SW 900	0.518

Same assay, conditions: first compound 0.1 µM

Cell Line	relative viability
201T	0.614
A-427	0.687
ABC-1	0.54
BEN	0.27
CAL-12T	0.394
COR-L23	0.519
COR-L 105	0.324
ChaGo-K-1	0.487
EKVX	0.514
EMC-BAC-2	0.282
EPLC-272H	0.445
H3255	0.422
HARA	0.256
HCC-15	0.639
HCC-78	0.448
HCC-366	0.618
HCC-827	0.255
HOP-62	0.613

Cell Line	relative viability
LC-2-ad	0.595
LCLC-97TM1	0.784
LCLC-103H	0.416
LK-2	0.253
LOU-NH91	0.623
LU99A	0.501
LXF-289	0.223
NCI-H23	0.645
NCI-H358	0.147
NCI-H522	0.875
NCI-H650	0.512
NCI-H661	0.899
NCI-H1395	0.409
NCI-H1563	0.453
NCI-H1623	0.499
NCI-H2342	0.303
SW 900	0.763

Same assay, conditions: first compound 0.3162 µM

Cell Line	relative viability
201T	0.548
ABC-1	0.501
BEN	0.224
COR-L23	0.437
COR-L 105	0.303
ChaGo-K-1	0.424
EKVX	0.492
EMC-BAC-2	0.363
EPLC-272H	0.366
H3255	0.393
HCC-78	0.361
HCC-827	0.225
HOP-62	0.663
LC-2-ad	0.382
LCLC-97TM1	0.816
LCLC-103H	0.497
LOU-NH91	0.554
LU99A	0.55
LXF-289	0.184
NCI-H358	0.151
NCI-H522	0.938
NCI-H650	0.388
NCI-H661	0.809
NCI-H1395	0.391
NCI-H1563	0.444
NCI-H1623	0.454
NCI-H2342	0.349
SW 900	0.597

Same assay, conditions: first compound 1 µM

Cell Line	relative viability
201T	0.569
A-427	0.719
ABC-1	0.616
BEN	0.312
CAL-12T	0.299
COR-L23	0.533
COR-L 105	0.257
ChaGo-K-1	0.624
EKVX	0.648
EMC-BAC-2	0.331
EPLC-272H	0.401
H3255	0.258
HARA	0.198
HCC-15	0.562
HCC-78	0.322
HCC-366	0.458
HCC-827	0.326
HOP-62	0.716

Cell Line	relative viability
LC-2-ad	0.453
LCLC-97TM1	0.846
LCLC-103H	0.484
LK-2	0.285
LOU-NH91	0.486
LU99A	0.566
LXF-289	0.247
NCI-H23	0.742
NCI-H358	0.156
NCI-H522	0.944
NCI-H650	0.406
NCI-H661	0.98
NCI-H1395	0.358
NCI-H1563	0.461
NCI-H1623	0.505
NCI-H2342	0.291
SW 900	0.633

What follows are cell lines tested with C[C@@H](Oc1cc(-c2cnn(C3CCNCC3)c2)cnc1N)c1c(Cl)ccc(F)c1Cl [Crizotinib] + CC1(C)CCC(c2ccc(Cl)cc2)=C(CN2CCN(c3ccc(C(=O)NS(=O)(=O)c4ccc(N[C@H](CCN5CCOCC5)CSc5ccccc5)c(S(=O)(=O)C(F)(F)F)c4)cc3)CC2)C1 [Navitoclax] (partner 0.5 µM) in the same assay as above. Conditions: first compound 0.01 µM.
In short: as §1

Cell Line	relative viability
201T	1.2
A549	1.22
A-427	0.95
BEN	0.0724
CAL-12T	1.19
COR-L23	0.952
COR-L 105	0.771
Calu-6	0.8
ChaGo-K-1	0.965
EBC-1	0.49
EKVX	0.879
EMC-BAC-2	1.13
H3255	0.53
HARA	1.13
HCC-15	0.644
HCC-44	0.838

Cell Line	relative viability
HCC-78	0.774
HCC-366	0.991
HCC-827	0.954
HOP-62	0.994
IA-LM	0.71
LC-2-ad	0.412
LCLC-97TM1	0.318
LK-2	0.826
LOU-NH91	0.68
LU99A	0.801
LXF-289	0.856
NCI-H23	0.85
NCI-H1299	1.04
NCI-H1395	1.12
NCI-H1703	1.03

Same assay, conditions: first compound 0.03162 µM

Cell Line	relative viability
201T	1.18
A549	1.15
A-427	1.03
BEN	0.0669
CAL-12T	1.22
COR-L23	0.993
Calu-6	0.766
ChaGo-K-1	0.922
EBC-1	0.344
EKVX	1
EMC-BAC-2	1.19
EPLC-272H	1.1
H3255	0.499
HARA	1.08
HCC-15	0.736
HCC-44	0.969
HCC-78	0.738
HCC-366	1.11
HOP-62	0.996
IA-LM	0.759
LC-2-ad	0.432
LCLC-97TM1	0.39
LK-2	0.938
LOU-NH91	0.708
LU99A	0.743
LXF-289	0.931
NCI-H23	0.738
NCI-H1299	1.02
NCI-H1395	0.956
NCI-H1703	0.933

Same assay, conditions: first compound 0.1 µM

Cell Line	relative viability
201T	1.16
A549	1.19
A-427	1
BEN	0.0752
CAL-12T	1.06
COR-L23	1.1
COR-L 105	0.908
Calu-6	0.836
ChaGo-K-1	1.1
EBC-1	0.12
EKVX	0.95
EMC-BAC-2	1.13
EPLC-272H	1.26
H3255	0.521
HARA	1.13
HCC-15	0.704
HCC-44	0.963
HCC-78	0.749
HCC-366	1.06
HCC-827	0.987
HOP-62	0.943
IA-LM	0.792
LC-2-ad	0.44
LCLC-97TM1	0.341
LK-2	0.674
LOU-NH91	0.701
LU99A	0.826
NCI-H23	0.688
NCI-H1299	1.01
NCI-H1395	1.09

Same assay, conditions: first compound 0.3162 µM

Cell Line	relative viability
201T	1.19
A549	1.17
BEN	0.0683
CAL-12T	1.18
COR-L23	0.937
COR-L 105	0.871
Calu-6	0.774
EBC-1	0.152
EKVX	0.871
EMC-BAC-2	1.12
EPLC-272H	1.1
H3255	0.484
HARA	1.13
HCC-15	0.664
HCC-44	1.01
HCC-78	0.685
HCC-827	1.01
IA-LM	0.796
LCLC-97TM1	0.317
LK-2	0.967
LOU-NH91	0.647
LU99A	0.721
LXF-289	0.879
NCI-H1299	1.07
NCI-H1395	1.21

Same assay, conditions: first compound 1 µM

Cell Line	relative viability
201T	1.21
A549	1.18
A-427	1.02
BEN	0.0583
CAL-12T	1.21
COR-L23	1.03
COR-L 105	0.76
Calu-6	0.735
ChaGo-K-1	0.854
EBC-1	0.16
EKVX	0.961
EMC-BAC-2	1.15
EPLC-272H	1.15
H3255	0.487
HARA	1.1
HCC-15	0.76

Cell Line	relative viability
HCC-44	1.05
HCC-78	0.628
HCC-366	1.17
HCC-827	0.953
HOP-62	0.948
IA-LM	0.842
LC-2-ad	0.442
LCLC-97TM1	0.404
LK-2	0.905
LOU-NH91	0.727
LU99A	0.786
LXF-289	0.939
NCI-H23	0.816
NCI-H1299	1.01
NCI-H1703	1.12

What follows are cell lines tested with O=C(c1cc(Cc2n[nH]c(=O)c3ccccc23)ccc1F)N1CCN(C(=O)C2CC2)CC1 [Olaparib] + CCNC(=O)c1noc(-c2cc(C(C)C)c(O)cc2O)c1-c1ccc(CN2CCOCC2)cc1 [Luminespib] (partner 0.01 µM) in the same assay as above. Conditions: first compound 0.08 µM.
In short: as §1

Cell Line	relative viability
201T	1.08
A-427	1.02
